{"source": "patent US9873709B2", "about": "(priority 2013, dated 2018)", "data": [{"test_system": "JAK1-dependent STAT6 phosphorylation downstream of IL-13 stimulation in TF-1 human erythroleukemia cells", "assay": "cells", "details": "TF-1, read-out: IL-13-pSTAT6 IC50", "units": {"IC50": "nM"}, "values": [{"smiles": "Cc1cccc(CCNC(=O)c2ccc(Nc3nc4c(C5=CCN(C(=O)CCC(F)(F)F)CC5)cccn4n3)cc2)n1", "note": "[Example 2-216, N-[2-(6-methyl-2-pyridyl)ethyl]-4-[[8-[1-(4,4,4-trifluorobutanoyl)-3,6-dihydro-2H-pyridin-4-yl]-[1,2,4]triazolo[1,5-a]pyridin-2-yl]amino]benzamide]", "IC50": 7.4}, {"smiles": "CN(C)c1cc(CC2CCN(C(=O)c3ccc(Nc4nc5c(C6=CCN(C(=O)CCC(F)(F)F)CC6)cccn5n4)cc3)C2)ncn1", "note": "(stereo not drawn) [Example 2-217, 1-[4-[2-[4-[3-[[6-(dimethylamino)pyrimidin-4-yl]methyl]pyrrolidine-1-carbonyl]anilino]-[1,2,4]triazolo[1,5-a]pyridin-8-yl]-3,6-dihydro-2H-pyridin-1-yl]-4,4,4-trifluoro-butan-1-one]", "IC50": 9.5}, {"smiles": "Cc1ccc(CC2CCN(C(=O)c3ccc(Nc4nc5c(C6=CCN(C(=O)CCC(F)(F)F)CC6)cccn5n4)cc3)C2)nc1", "note": "(stereo not drawn) [Example 2-218, 4,4,4-trifluoro-1-[4-[2-[4-[3-[(5-methyl-2-pyridyl)methyl]pyrrolidine-1-carbonyl]anilino]-[1,2,4]triazolo[1,5-a]pyridin-8-yl]-3,6-dihydro-2H-pyridin-1-yl]butan-1-one]", "IC50": 15.4}, {"smiles": "O=C(NCCc1cccnc1)c1ccc(Nc2nc3c(C4=CCN(C(=O)CCC(F)(F)F)CC4)cccn3n2)cc1", "note": "[Example 2-220, N-[2-(3-pyridyl)ethyl]-4-[[8-[1-(4,4,4-trifluorobutanoyl)-3,6-dihydro-2H-pyridin-4-yl]-[1,2,4]triazolo[1,5-a]pyridin-2-yl]amino]benzamide]", "IC50": 5.8}, {"smiles": "CN1CCC(N(C)C(=O)c2ccc(Nc3nc4c(C5=CCN(C(=O)NCc6ccccc6)CC5)cccn4n3)cc2)CC1", "note": "[Example 2-222, N-benzyl-4-[2-[4-[methyl-(1-methyl-4-piperidyl)carbamoyl]anilino]-[1,2,4]triazolo[1,5-a]pyridin-8-yl]-3,6-dihydro-2H-pyridine-1-carboxamide]", "IC50": 468}, {"smiles": "CC1CC1C(=O)N1CC=C(c2cccn3nc(Nc4ccc(C(=O)N(C)C5CCN(C)CC5)cc4)nc23)CC1", "note": "(stereo not drawn) [Example 2-223, N-methyl-4-[[8-[1-(2-methylcyclopropanecarbonyl)-3,6-dihydro-2H-pyridin-4-yl]-[1,2,4]triazolo[1,5-a]pyridin-2-yl]amino]-N-(1-methyl-4-piperidyl)benzamide]", "IC50": 17.3}, {"smiles": "COC(=O)N1CC=C(c2cccn3nc(Nc4ccc(C(=O)N(C)C5CCN(C)CC5)cc4)nc23)CC1", "note": "[Example 2-224, methyl 4-[2-[4-[methyl-(1-methyl-4-piperidyl)carbamoyl]anilino]-[1,2,4]triazolo[1,5-a]pyridin-8-yl]-3,6-dihydro-2H-pyridine-1-carboxylate]", "IC50": 204}, {"smiles": "CN1CCC(N(C)C(=O)c2ccc(Nc3nc4c(C5=CCN(C(=O)OCC(F)F)CC5)cccn4n3)cc2)CC1", "note": "[Example 2-225, 2,2-difluoroethyl 4-[2-[4-[methyl-(1-methyl-4-piperidyl)carbamoyl]anilino]-[1,2,4]triazolo[1,5-a]pyridin-8-yl]-3,6-dihydro-2H-pyridine-1-carboxylate]", "IC50": 11.3}, {"smiles": "CCOC(=O)N1CC=C(c2cccn3nc(Nc4ccc(C(=O)NCCNC)cc4)nc23)CC1", "note": "[Example 2-230, ethyl 4-[2-[4-[2-(methylamino)ethylcarbamoyl]anilino]-[1,2,4]triazolo[1,5-a]pyridin-8-yl]-3,6-dihydro-2H-pyridine-1-carboxylate]", "IC50": 157}, {"smiles": "CCOC(=O)N1CC=C(c2cccn3nc(Nc4ccc(C(=O)NC5CCNC5)cc4)nc23)CC1", "note": "(stereo not drawn) [Example 2-231, ethyl 4-[2-[4-(pyrrolidin-3-ylcarbamoyl)anilino]-[1,2,4]triazolo[1,5-a]pyridin-8-yl]-3,6-dihydro-2H-pyridine-1-carboxylate]", "IC50": 268}, {"smiles": "CCOC(=O)N1CC=C(c2cccn3nc(Nc4ccc(C(=O)N5CCCCC5c5cccnc5)cc4)nc23)CC1", "note": "(stereo not drawn) [Example 2-232, ethyl 4-[2-[4-[2-(3-pyridyl)piperidine-1-carbonyl]anilino]-[1,2,4]triazolo[1,5-a]pyridin-8-yl]-3,6-dihydro-2H-pyridine-1-carboxylate]", "IC50": 288}, {"smiles": "CCOC(=O)N1CC=C(c2cccn3nc(Nc4ccc(C(=O)N5CCCCC5Cc5ccccn5)cc4)nc23)CC1", "note": "(stereo not drawn) [Example 2-235, ethyl 4-[2-[4-[2-(2-pyridylmethyl)piperidine-1-carbonyl]anilino]-[1,2,4]triazolo[1,5-a]pyridin-8-yl]-3,6-dihydro-2H-pyridine-1-carboxylate]", "IC50": 23.1}, {"smiles": "CCOC(=O)N1CC=C(c2cccn3nc(Nc4ccc(C(=O)N5CCCC(O)(CN6CCCC6)CC5)cc4)nc23)CC1", "note": "(stereo not drawn) [Example 2-241, ethyl 4-[2-[4-[4-hydroxy-4-(pyrrolidin-1-ylmethyl)azepane-1-carbonyl]anilino]-[1,2,4]triazolo[1,5-a]pyridin-8-yl]-3,6-dihydro-2H-pyridine-1-carboxylate]", "IC50": 63.7}, {"smiles": "CCOC(=O)N1CC=C(c2cccn3nc(Nc4ccc(C(=O)NCc5ccc(C)nc5)cc4)nc23)CC1", "note": "[Example 2-245, ethyl 4-[2-[4-[(6-methyl-3-pyridyl)methylcarbamoyl]anilino]-[1,2,4]triazolo[1,5-a]pyridin-8-yl]-3,6-dihydro-2H-pyridine-1-carboxylate]", "IC50": 12.2}, {"smiles": "CCOC(=O)N1CC=C(c2cccn3nc(Nc4ccc(C(=O)N[C@H]5CCCNC5)cc4)nc23)CC1", "note": "[Example 2-250, ethyl 4-[2-[4-[[(3S)-3-piperidyl]carbamoyl]anilino]-[1,2,4]triazolo[1,5-a]pyridin-8-yl]-3,6-dihydro-2H-pyridine-1-carboxylate]", "IC50": 76.7}, {"smiles": "O=C(CCC(F)(F)F)N1CC=C(c2cccn3nc(Nc4ccc(C(=O)N5CCC6(CCCNC6)C5)cc4)nc23)CC1", "note": "(stereo not drawn) [Example 2-253, 1-[4-[2-[4-(2,9-diazaspiro[4.5]decane-2-carbonyl)anilino]-[1,2,4]triazolo[1,5-a]pyridin-8-yl]-3,6-dihydro-2H-pyridin-1-yl]-4,4,4-trifluoro-butan-1-one]", "IC50": 151}, {"smiles": "O=C(CCC(F)(F)F)N1CC=C(c2cccn3nc(Nc4ccc(C(=O)N5CCOC6(CCNCC6)C5)cc4)nc23)CC1", "note": "[Example 2-254, 4,4,4-trifluoro-1-[4-[2-[4-(1-oxa-4,9-diazaspiro[5.5]undecane-4-carbonyl)anilino]-[1,2,4]triazolo[1,5-a]pyridin-8-yl]-3,6-dihydro-2H-pyridin-1-yl]butan-1-one]", "IC50": 588}, {"smiles": "O=C(NC1CCNC1)c1ccc(Nc2nc3c(C4=CCN(C(=O)CCC(F)(F)F)CC4)cccn3n2)cc1", "note": "(stereo not drawn) [Example 2-255, N-pyrrolidin-3-yl-4-[[8-[1-(4,4,4-trifluorobutanoyl)-3,6-dihydro-2H-pyridin-4-yl][1,2,4]triazolo[1,5 a]pyridin-2-yl]amino]benzamide]", "IC50": 297}, {"smiles": "NC1CN(C(=O)c2ccc(Nc3nc4c(C5=CCN(C(=O)CCC(F)(F)F)CC5)cccn4n3)cc2)C1", "note": "[Example 2-256, 1-[4-[2-[4-(3-aminoazetidine-1-carbonyl)anilino]-[1,2,4]triazolo[1,5-a]pyridin-8-yl]-3,6-dihydro-2H-pyridin-1-yl]-4,4,4-trifluoro-butan-1-one]", "IC50": 68.4}, {"smiles": "O=C(CCC(F)(F)F)N1CC=C(c2cccn3nc(Nc4ccc(C(=O)N5CCCC56CCCNC6)cc4)nc23)CC1", "note": "(stereo not drawn) [Example 2-257, 1-[4-[2-[4-(1,9-diazaspiro[4.5]decane-1-carbonyl)anilino]-[1,2,4]triazolo[1,5-a]pyridin-8-yl]-3,6-dihydro-2H-pyridin-1-yl]-4,4,4-trifluoro-butan-1-one]", "IC50": 60.5}, {"smiles": "O=C(CCC(F)(F)F)N1CC=C(c2cccn3nc(Nc4ccc(C(=O)N5CCCC56CCNCC6)cc4)nc23)CC1", "note": "[Example 2-258, 1-[4-[2-[4-(1,8-diazaspiro[4.5]decane-1-carbonyl)anilino]-[1,2,4]triazolo[1,5-a]pyridin-8-yl]-3,6-dihydro-2H-pyridin-1-yl]-4,4,4-trifluoro-butan-1-one]", "IC50": 238}, {"smiles": "CN1CCOC2(C1)CN(C(=O)c1ccc(Nc3nc4c(C5=CCN(C(=O)CCC(F)(F)F)CC5)cccn4n3)cc1)C2", "note": "[Example 2-259, 4,4,4-trifluoro-1-[4-[2-[4-(8-methyl-5-oxa-2,8-diazaspiro[3.5]nonane-2-carbonyl)anilino]-[1,2,4]triazolo[1,5-a]pyridin-8-yl]-3,6-dihydro-2H-pyridin-1-yl]butan-1-one]", "IC50": 5.8}, {"smiles": "O=C(CCC(F)(F)F)N1CC=C(c2cccn3nc(Nc4ccc(C(=O)N5CCN(C6CCC6)CC5)cc4)nc23)CC1", "note": "[Example 2-260, 1-[4-[2-[4-(4-cyclobutylpiperazine-1-carbonyl)anilino]-[1,2,4]triazolo[1,5-a]pyridin-8-yl]-3,6-dihydro-2H-pyridin-1-yl]-4,4,4-trifluoro-butan-1-one]", "IC50": 5.3}, {"smiles": "CN(C)C(=O)C1(c2ccncc2)CCCN1C(=O)c1ccc(Nc2nc3c(C4=CCN(C(=O)CCC(F)(F)F)CC4)cccn3n2)cc1", "note": "(stereo not drawn) [Example 2-261, N,N-dimethyl-2-(4-pyridyl)-1-[4-[[8-[1-(4,4,4-trifluorobutanoyl)-3,6-dihydro-2H-pyridin-4-yl]-[1,2,4]triazolo[1,5-a]pyridin-2-yl]amino]benzoyl] pyrrolidine-2-carboxamide]", "IC50": 46.5}, {"smiles": "CN1CCN(C(=O)C2COCCN2C(=O)c2ccc(Nc3nc4c(C5=CCN(C(=O)CCC(F)(F)F)CC5)cccn4n3)cc2)CC1", "note": "(stereo not drawn) [Example 2-262, 4,4,4-trifluoro-1-[4-[2-[4-[3-(4-methylpiperazine-1-carbonyl)morpholine-4-carbonyl]anilino]-[1,2,4]triazolo[1,5-a]pyridin-8-yl]-3,6-dihydro-2H-pyridin-1-yl]butane-1-one]", "IC50": 97.1}, {"smiles": "CC1CC(C(=O)N2CC=C(c3cccn4nc(Nc5ccc(C(=O)N(C)C6CCN(C)CC6)cc5)nc34)CC2)C1", "note": "(stereo not drawn) [Example 2-263, N-methyl-4-[[8-[1-(3-methylcyclobutanecarbonyl)-3,6-dihydro-2H-pyridin-4-yl]-[1,2,4]triazolo[1,5-a]pyridin-2-yl]amino]-N-(1-methyl-4-piperidyl)benzamide]", "IC50": 29.6}, {"smiles": "CN1CCC(OC(=O)c2ccc(Nc3nc4c(C5=CCN(C(=O)CCC(F)(F)F)CC5)cccn4n3)cc2)CC1", "note": "[Example 2-264, (1-methyl-4-piperidyl) 4-[[8-[1-(4,4,4-trifluorobutanoyl)-3,6-dihydro-2H-pyridin-4-yl]-[1,2,4]triazolo[1,5-a]pyridin-2-yl]amino]benzoate]", "IC50": 11.7}]}]}
